Assay results from patent US20130202659A1, “POLYMER-AGENT CONJUGATES, PARTICLES, COMPOSITIONS, AND RELATED METHODS OF USE” (CERULEAN PHARMA INC., priority 2012, published 2013).

Columns and labels:
[1] = Body weight changes in A2780 tumor-bearing mice (Example 42); format: in vivo, mouse; conditions: Day 36
Method: The stock solution was diluted further with PBS to 1.5 mg/mL (for a dose of 15 mg/kg at 10 mL/kg and 30 mg/kg at 20 mL/kg). This formulation was made within 30 minutes of administration to mice.
The treatments were administered 2 times, on Day 8 and Day 15 (weekly×2 injections) for n=8 mice per group. […] On Day 50, the study was ended for all remaining mice. When removed from the study, mice were euthanized by CO2 inhalation.

[2] = test system: B16.F10 tumor; assay: Efficacy in B16.F10 murine melanoma model (Example 43); format: in vivo, mouse
Method: 7) PEGylated docetaxel-5050 PLGA-β-acetyl nanoparticles (mPEG(5k)-PLGA at 40 wt %) administered at a dose of 15 mg/kg. Refer to table for detailed description of formulations.
Tumor volume was calculated with the following equation: (width×width×length)/2 mm^3.

[3] = test system: HCT-116 tumor; assay: In vivo efficacy, HCT-116 colon xenograft model (Example 44); parameters: species or system human (in CD-1 nude mice); conditions: 30 mg/kg IV weekly×2
Method: HCT-116 cells were grown in culture to confluency in McCoy's 5a medium containing 10% FBS and 1% penicillin/streptomycin and then resuspended in McCoy's 5a (passage 4). This suspension of HCT-116 cells (density=3.7×10^6 cells/mL) was implanted subcutaneously above the right hind leg of male CD-1 nude mice on day 1.

[4] = test system: SK-OV-3 tumor; assay: In vivo efficacy, SK-OV-3 ovarian human xenograft model (Example 45); parameters: species or system human (in CD-1 nude mice)
Method: SK-OV-3 cells were grown in culture to confluency in RPMI medium containing 10% FBS and 1% penicillin/streptomycin and then resuspended in RPMI (passage 4) for implantation into mice. This suspension of SK-OV-3 cells (density=30×10^6 cells/mL) was implanted into the mammary gland of female CD-1 nude mice on Day 1. […]

[5] = Tolerability in normal male C57BL/6 non-tumor-bearing mice (Example 47); format: in vivo, mouse
Method: Treatments were administered intravenously on a q7d×2 schedule, i.e., two treatments seven days apart (the first treatment was on Day one). The study ended on Day 14, six days after the 2nd treatment. Blood was collected for complete blood count (CBC) and serum chemistry. Leg muscles were collected so that nerve degeneration could be assessed from the sciatic nerve.

[6] = Tolerability in ADR-RES tumor-bearing mice (Example 59); format: in vivo, mouse
Method: The treatments were administered IV into the tail vein at a dose volume of 10 and 20 mL/kg for 30 and 60 mg/kg respectively, beginning on post-implantation day 47, when the mean tumor volume was ca. 150 mm^3. Body weight and tumor volume were measured for three times a week during the dosing period and twice a week thereafter. In addition, animals were also monitored for any morbidity and adverse effects for three times a week during the dosing period and twice a week thereafter.
Tumor volume was calculated with (width×width×length)/2 mm^3 formula. […] Tumor growth inhibition (TGI) is represented as % and calculated as (1−(treated tumor volume/control tumor volume))×100 when the control group mean tumor volume reached ≧1000 mm^3. Tumor growth delay (TGD) is calculated by subtracting the day when the vehicle treated group reached the maximum tumor size 1000 mm^3 from the day when the treatment group tumor size reached 1000 mm^3.

[7] = test system: H1299 tumor; assay: Efficacy in non-small cell lung carcinoma model H1299 (Example 60); format: in vivo, nu/nu mice; conditions: large tumor group, 30 mg/kg
Method: H1299 cells were grown in culture to 85-90% confluency in RPMI medium supplemented with 10% fetal bovine serum (FBS), 1% glutamine and 1% penicillin/streptomycin. Cells were removed from the culture flask using 0.05% trypsin (passage=4), re-suspended in RPMI medium (density=50×10^6 cells/mL) and were implanted subcutaneously (5×10^6 cells in 100 μL RPMI medium/mouse) into the mammary fat pad area of male nu/nu mice on day 1.
(§1) The treatments were administered IV into the tail vein at a dose volume of 10 and 20 mL/kg for 30 and 60 mg/kg respectively, beginning on post-implantation day 30 when the mean tumor volume was ca. 170 mm^3 (small tumor group), and on day 37 when the mean tumor volume was ca. 440 mm^3 (large tumor group). Body weight and tumor volume were measured for three times a week during the dosing period and twice a week thereafter. In addition, animals were also monitored for any morbidity and adverse effects for three times a week during the dosing period and twice a week thereafter.
Tumor volume was calculated with (width×width×length)/2 mm^3 formula. Efficacy was determined by tumor growth inhibition (TGI), tumor growth delay (TGD) and survival. Tumor growth inhibition (TGI) is represented as % and calculated as (1−(treated tumor volume/control tumor volume))×100 when the control group mean tumor volume reached ≧1000 mm^3. […]

[8] = Tolerability in H1299 tumor-bearing mice (Example 60); format: in vivo, mouse
Method: as §1
Tumor volume was calculated with (width×width×length)/2 mm^3 formula. Efficacy was determined by tumor growth inhibition (TGI), tumor growth delay (TGD) and survival. Tumor growth inhibition (TGI) is represented as % and calculated as (1−(treated tumor volume/control tumor volume))×100 when the control group mean tumor volume reached ≧1000 mm^3. Tumor growth delay (TGD) is calculated by subtracting the day when the vehicle treated group reached the maximum tumor size 1000 mm^3 from the day when the treatment group tumor size reached 1000 mm^3.

[9] = Tolerability in mouse melanoma model B16.F10 (Example 61); format: in vivo; conditions: 15 mg/kg 1/wk×3
Method: The treatments were administered IV into the tail vein at a dose volume of 10 ml/kg, beginning on post-implantation day 5, when the mean tumor volume was ca. 60 mm^3. Animals were monitored for any morbidity and adverse effects three times a week. In addition, body weight and tumor volume were also measured three times a week.

[10] = test system: murine melanoma tumor; assay: Efficacy and survival in aggressive murine melanoma model at MTD (Example 92); format: in vivo, mouse; conditions: dosed at respective MTD
Method: Thus, the sustained release properties of a particle according to exemplary particle 1 supports less frequent dosing of patients. Methods: Tumor-bearing mice were injected with a particle according to exemplary particle 1 or docetaxel at their respective MTD. See, for example, FIGS. 6a and 6b.

[11] = test system: MDA-MB-435 tumor; assay: MDA-MB-435 breast xenograft model, delayed treatment (Example 93); conditions: mouse, in vivo
Description: See, for example, FIG. 7.

[12] = mouse, in vivo, 17 day post-implantation
Method: The stock solution was diluted further with PBS to 0.6, 1.5, 3, 4.5 and 6 mg/mL (for a corresponding dose of 6, 15, 30, 45 and 60 mg/kg) so that all the groups received the same amount of ethanol, polysorbate 80, water and PBS. […] 5) PEGylated O-acetyl-5050-PLGA nanoparticle vehicle at the highest concentration of 6 mg/mL.
The treatments were administered IV into the tail vein at a dose volume of 10 mL/kg, beginning on post-implantation Day 5, when the mean tumor volume was 55 mm^3. The treatments were administered 4 times, on Days 5, 8, 12 and 15 (biweekly×4 injections). On Day 17 post-tumor implantation, mice were euthanized by CO2 inhalation according to the procedure guideline. Blood was collected by cardiac puncture and put into ethylenediaminetetraacetic acid (EDTA) or serum separation blood collection tubes. Whole blood was analyzed on the day of collection for CBC analyses. After the blood clotted and was centrifuged, serum was frozen immediately on dry ice for serum chemistry analyses.
Tolerability was determined by changes in body weight, expressed as a percent of the initial body weight on post-implantation Day 5. […] Other indices of toxicity, complete blood count (CBC) and serum chemistry were determined from blood collected from animals that were euthanized on Day 17 by CO2 inhalation, according to the procedure guideline.

[13] = weekly schedule, 3 injections; cited from earlier work
[14] = test system: B16.F10 tumor; assay: In vivo efficacy, B16.F10 mouse model of melanoma (Example 39)
Method: The treatments were administered on days 5, 8, and 12 (biweekly×3 injections) post tumor implantation. Health status of the animals was monitored and tumor size was measured three times a week. […] Tumors from each animal were dissected and tumor size was measured. Tumor volume was calculated using the formula: (width×width×length)/2 mm^3.

[15] = test system: B 16.F10 cells; assay: CellTiter-Glo Luminescent Cell Viability Assay, cytotoxic effect of nanoparticles; format: cell-based, mouse; conditions: 24, 48 and 72 hours
Method: B 16.F10 cells, grown to 85-90% confluency in 150 cm^2 flasks (passage<30), were resuspended in media (MEM-alpha, 10% HI-FBS, lx antibiotic-antimycotic) and added to 96-well opaque-clear bottom plates at a concentration of 1500 cells/well in 200 μL/well. The cells were incubated at 37° C. with 5% CO2 for 24 hours. The following day, serial dilutions of 2× concentrated particles and 2× concentrated free drug were made in 12-well reservoirs with media to specified concentrations. The media in the plates was replaced with 100 μL of fresh media and 100 μL of the corresponding serially diluted drug. Three sets of plates were prepared with duplicate treatments. Following 24, 48 and 72 hours of incubation at 37° C. with 5% CO2, the media in the plates was replaced with 100 μL of fresh media and 100 μL of CTG solution, and then incubated for 5 minutes on a plate shaker at room temperature set to 450 rpm and allowed to rest for 15 minutes. Viable cells were measured by luminescence using a microtiter plate reader. The data was plotted as % viability vs. concentration and standardized to untreated cells.

[16] = large tumor group, 30 mg/kg 1/wk×2
[17] = large tumor group, 60 mg/kg 1/wk×2
[18] = small tumor group, 30 mg/kg 1/wk×2
[19] = small tumor group, 60 mg/kg 1/wk×2

CC(=O)O[C@@]12CO[C@@H]1C[C@H](O)[C@@]1(C)C(=O)[C@H](O)C3=C(C)[C@@H](OC(=O)[C@H](O)[C@@H](NC(=O)OC(C)(C)C)c4ccccc4)C[C@@](O)([C@@H](OC(=O)c4ccccc4)[C@H]21)C3(C)C [Free docetaxel, docetaxel]
body weight, % of initial ([1]; 15 mg/kg): 113±11% | body weight, % of initial ([1]; 30 mg/kg): 105±9% | tumor growth delay (TGD) ([2]; q3dq4dx3, 15 mg/kg): 12 days | tumor growth delay (TGD) ([2]; q7dx3, 30 mg/kg): 17 days | day tumor volume end point reached ([2]; q14dx2, 60 mg/kg): 29 days | tumor growth inhibition (TGI) ([2]; q14dx2, 60 mg/kg): 71% | tumor growth inhibition (TGI) [3]: 88% | TGD ([3]; end point 1000 mm^3): 22 days | tumor growth delay (TGD) ([4]; 15 mg/kg weekly×2): 18 days | tumor growth delay (TGD) ([4]; 30 mg/kg weekly×2): 42 days | Ataxia ([5]; 30 mg/kg q7d×2): 0% | Lymphocyte mean ([5]; 30 mg/kg q7d×2, Day 14): 4350 cells/A | Neutrophil mean ([5]; 30 mg/kg q7d×2, Day 14): 556 cells/A | Ataxia ([5]; 45 mg/kg q7d×2): 20% | Lymphocyte mean ([5]; 45 mg/kg q7d×2, Day 14): 6780 cells/A | Neutrophil mean ([5]; 45 mg/kg q7d×2, Day 14): 752 cells/A | Ataxia ([5]; 60 mg/kg q7d×2): 100% | weight lost after the second treatment, by the end of the study ([5]; 60 mg/kg q7d×2): 19% | Lymphocyte mean ([5]; 60 mg/kg q7d×2, Day 14): 5590 cells/A | Neutrophil mean ([5]; 60 mg/kg q7d×2, Day 14): 470 cells/A | effect on serum chemistry ([5]; doses up to 60 mg/kg): did not affect any serum chemistry parameter | Maximum body weight loss ([6]; 30 mg/kg 1/biwk×3): 9% | hind limb paralysis ([6]; 30 mg/kg 1/biwk×3): did not cause any significant body weight loss (<10%) or hind limb paralysis | Maximum body weight loss ([6]; 30 mg/kg 1/wk×2): 6% | hind limb paralysis ([6]; 30 mg/kg 1/wk×2): did not cause any significant body weight loss (<10%) or hind limb paralysis | Maximum body weight loss ([6]; 60 mg/kg 1/biwk×3): 21% | hind limb paralysis ([6]; 60 mg/kg 1/biwk×3): severe hind limb paralysis | Maximum body weight loss ([6]; 60 mg/kg 1/wk×2): 23% | hind limb paralysis ([6]; 60 mg/kg 1/wk×2): hind limb paralysis after the 2nd injection followed by recovery | tumor shrinkage [7]: no tumor shrinkage | Maximum body weight loss [8, 16]: 19% | hind limb paralysis [8, 16]: did not cause any significant body weight loss or hind limb paralysis | Maximum body weight loss [8, 17]: significant body weight loss | hind limb paralysis [8, 17]: severe hind limb paralysis | Maximum body weight loss [8, 18]: 18% | hind limb paralysis [8, 18]: did not cause any significant body weight loss or hind limb paralysis | Maximum body weight loss [8, 19]: significant body weight loss | hind limb paralysis [8, 19]: severe hind limb paralysis | Maximum body weight loss [9]: 2% | tumor growth with every other week dosing [10]: not sufficient to suppress tumor growth | effect on tumors allowed to grow to 500 mm^3 (delayed treatment) [11]: unable to suppress tumor growth | dose up to which no serum chemistry parameter was affected [12]: 30 mg/kg | known maximum tolerated dose (MTD) [13]: 30 mg/kg

CC(=O)O[C@H]1C(=O)[C@@]2(C)[C@H]([C@H](OC(=O)c3ccccc3)[C@]3(O)C[C@H](OC(=O)[C@H](O)[C@@H](NC(=O)c4ccccc4)c4ccccc4)C(C)=C1C3(C)C)[C@]1(OC(C)=O)CO[C@@H]1C[C@@H]2O [Free paclitaxel, paclitaxel]
Day-17 TGI ([14]; 6 mg/kg IV days 5, 8, 12): 57% | Day-17 TGI ([14]; 15 mg/kg IV days 5, 8, 12): 83%

OC[C@H]1O[C@@](CO)(O[C@H]2O[C@H](CO)[C@@H](O)[C@H](O)[C@H]2O)[C@@H](O)[C@@H]1O [Sucrose, sucrose]
Recon. Solution Appearance (nanoparticles A, sucrose cycle, lyoprotectant 100 mg/mL, polymer 31.25 mg/mL, 3.2:1): cloudy

OC[C@H]1O[C@@H]2O[C@H]3[C@H](O)[C@@H](O)[C@@H](O[C@H]4[C@H](O)[C@@H](O)[C@@H](O[C@H]5[C@H](O)[C@@H](O)[C@@H](O[C@H]6[C@H](O)[C@@H](O)[C@@H](O[C@H]7[C@H](O)[C@@H](O)[C@@H](O[C@H]8[C@H](O)[C@@H](O)[C@@H](O[C@H]1[C@H](O)[C@H]2O)O[C@@H]8CO)O[C@@H]7CO)O[C@@H]6CO)O[C@@H]5CO)O[C@@H]4CO)O[C@@H]3CO [β-CD, β-cyclodextrin]
solubility of the cyclodextrin in the formulation (40 mg/mL): Beta-CD is not soluble at this

bis(docetaxel) glutamate-5050 PLGA-O-acetyl
growth inhibition of B 16.F10 cells [15]: inhibited the growth of B 16.F10 cells in a dose and time dependent manner

docetaxel-5050 PLGA-O-acetyl
growth inhibition of B 16.F10 cells [15]: inhibited the growth of B 16.F10 cells in a dose and time dependent manner

doxorubicin 5050 PLGA amide
growth inhibition of B 16.F10 cells [15]: inhibited the growth of B 16.F10 cells in a dose and time dependent manner

paclitaxel-5050 PLGA-O-acetyl
growth inhibition of B 16.F10 cells [15]: inhibited the growth of B 16.F10 cells in a dose and time dependent manner
